Experimental findings from patent publication US5736568A, “2-(aminoalkoxy) phenylalkylamines with antiinflammatory activity” (Knoll Aktiengesellschaft, priority 1994, dated 1998) are described below.

Structures are written as SMILES.

Test [1] concerns arachidonic acid release from zymosan stimulated macrophages. Kind of test: Test A: Inhibition of Arachidonic Acid Release from Zymosan Stimulated Macrophages. It counts as cell-based, mice (female MF1). The note with it: Mus musculus, Macrophage; peritoneal macrophages labelled with [3H]-arachidonic acid, zymosan stimulus, 5 h; tested at 100, 50, 20, 10, 5 and 1 μM. The procedure:
Test A was carried out in the following way:
Inhibition of Arachidonic Acid Release from Zymosan Stimulated Macrophages
Female MF1 mice (weighing 20 to 25 g) were killed using a rising concentration of CO2. The mice were laid on their backs and the abdomens wiped with 70% alcohol. The skin was pulled back, exposing the peritoneal wall. Medium A (5 ml) (see below) was injected into the peritoneal cavity of each mouse followed by approximately 1 ml of air using a 20 ml syringe and a 21 G×40 mm needle in order to form a suspension of macrophage cells. The medium and cells were then removed using a 19 G×40 mm needle. The resulting suspension was returned to a sterile beaker kept on ice. The extracts from all the mice were pooled and this pooled cell suspension was counted using a Coulter counter and adjusted to a final cell count of 1-1.3×10^6 cells/ml prior to labelling with [^3 H]-arachidonic acid. Typically five mice provided sufficient cells for each multiwell plate.
Sufficient [^3 H]-arachidonic acid in ethanol to give a final concentration of 1.6 μCi/ml (equivalent to 40 μCi/plate) was blown to dryness under nitrogen. The arachidonic acid was then resuspended in 1 or 2 ml of the cell suspension which was then mixed with the remainder of the cell suspension in a centrifuge bottle.
The following day, non-adherent cells were removed by washing 3 times with sterile phosphate buffered saline (PBS). The adherent peritoneal macrophages were then cultured for a further 24 hours in the presence or absence of drugs, in medium B (see below) at 37° in a 5% CO2 atmosphere in order to measure the effects of drugs on the spontaneous release of arachidonic acid in the absence of stimulus. After this incubation, supernatants were removed to give medium 1 and stored in sealed multi-well plates at 4° C. prior to scintillation counting. […] The supernatants were replaced by fresh medium C containing fresh drug and a stimulus. Three drugs were tested at six concentrations (100, 50, 20, 10, 5 and 1 μM) in replicates of four on each plate. The other wells contained controls consisting of a positive control (e.g. dexamethasone), medium (B) only and medium C only.
Incubation was then continued for a further 5 hours, whereupon the supernatants were collected to give medium 2 and the adherent cells washed with PBS. The cells were then lysed with 100 μl of 0.1% TRITON® X100 in a 0.1% solution of bovine serum albumin in 0.9% saline and mechanically disrupted to give cell lysates. These supernatants (medium 2) and cell lysates (Cells) were also stored in sealed multi-well plates at 4° C. prior to scintillation counting. 200 μl aliquots of media, or 100 μl aliquots of cells were counted using 2 ml of OPTIPHASE "HIGH SAFE" (Trademark of LKB) as scintillant.
The percentage of arachidonic acid released was calculated using the mean values for each group of 4 wells in the following equation. [formula]
The percentage inhibition of arachidonic acid release caused by a drug may then be calculated using the following equation. [formula]
Medium A (for peritoneal lavage)
This mixture was transferred to sterile flask and made up to 400 ml with sterile water.
Medium B (for cell culture)
This mixture was transferred to a sterile beaker and made up to 650 ml with sterile water.
Medium C=medium B+stimulant (zymosan)
The zymosan stimulant was prepared as follows:--zymosan (200 mg) (supplied by Sigma) was added to PBS (20 ml). The mixture was boiled for 30 minutes and the volume restored to 20 ml with water. The zymosan was harvested by centrifugation at 500×g for 5 minutes, washed twice by resuspension in PBS (10 ml) and centrifugation. After the final separation, the zymosan was resuspended in 20 ml PBS and stored as 1 ml aliquots at -20° C.

The subject of test [2] is carrageenan-induced paw oedema. Nature of the test: Test B: Carrageenan-induced rat paw oedema test. It is filed as in vivo. To be noted: inhibition of paw oedema, 100 mg/kg oral, 3 h after carrageenan. As to the method:
Test B was carried out in the following way:
Carrageenan-induced rat paw oedema test
Female rats, weight range 125-150 g were fasted overnight. One of the hind legs of each animal was marked with a line at the connection between the cuboid/navicular and calcaneus/talus bones. Groups of six rats were orally dosed at 10 ml/kg, in random order, with a given dose of the test compound given as a solution or suspension in 10% (w/v) aqueous acacia solution.
One hour after dosing, 0.1 ml of 1% (w/v) sterile carrageenan λ in normal saline was injected deeply into the plantar surface of the marked hind foot of each rat. The volume of the foot (up to the marked line) was measured immediately after injection using duplicate water displacement readings. Three hours after injection the foot volume was measured again and the percentage increase in foot volume relative to the initial reading was calculated.
The increase in foot volume (i.e. the degree of oedema) in drug treated animals when compared with that in the drug untreated control gave the degree of inhibition of paw oedema by the drug.
Compounds were considered to be active in this test if they produced a statistically significant (typically 20% or greater) inhibition of paw oedema in at least two out of three tests after oral dosing at 100 mg/kg. Statistical significance was assessed using the Student's t test for single dose studies and Dunnett's test for multiple dose studies. More advantageous compounds were active in both Tests A and B,
For orientation: In the carrageenan paw model, swelling and tenderness develop within hours.

Test [3] deals with carrageenan-induced pleurisy. Kind of test: Test C: Carrageenan-induced pleurisy in rats. It is filed as in vivo, rat. The note with it: 24 h and 48 h, leukocytes harvested at 72 h; for activity in Test C at 30 mg/kg: 30 mg/kg p.o. at challenge; for activity in Test C at 10 mg/kg or less: 10 mg/kg or less p.o. at challenge. As to the method: The most advantageous compounds of formula I were active in Test A and also in the following test. Carrageenan-induced pleurisy in rats was carried out as described by Ackerman et al. J. Pharmacol. Exp. Therap. 1980, 215, 588-595. Migrating leukocytes were harvested by lavage of the thoracic cavity 72 h after injection of 0.3 ml 1% λ-carrageenan in sterile isotonic saline. Test compounds were administered p.o. at the time of challenge and 24 h and 48 h thereafter.

Usually IC50 stands for the concentration needed to halve the response being measured. What is called inhibition is how much of the control response was suppressed. Lower therefore signals little suppression. As for `CN(C)Cc1cc(Cl)ccc1OCCCN(C)Cc1ccccc1` [Example 12, 2-[3-(N-Benzyl-N-methylamino)propoxy]-5-chloro-N,N-dimethylbenzylamine], the IC50 in test [1] is 8 µM. Moreover, the inhibition at 100 mg/kg in test [2] was 68%. Besides, the “activity in Test C at 30 mg/kg” value in test [3] was “active”.
Regarding `CN(C)Cc1cc(Cl)ccc1OCCN(C)Cc1ccccc1` [Example 21, 2-[2-(N-Benzyl-N-methylamino)ethoxy]-5-chloro-N,N-dimethylbenzylamine], the midpoint of inhibition in test [1], the IC50, lay at 22 µM. The inhibition at 100 mg/kg in test [2] was determined as 31%. For the same molecule, the “activity in Test C at 10 mg/kg or less” value in test [3] is recorded as “active”.
As to `CN(C)CCOc1ccc(Cl)cc1CN(C)C` [Example 22, 5-Chloro-2-(2-dimethylaminoethoxy)-N,N-dimethylbenzylamine], it took 14 µM to reach half-maximal inhibition in test [1] (IC50). In test [2], this molecule returned an inhibition at 100 mg/kg of 26%. Further, the “activity in Test C at 30 mg/kg” value in test [3] is recorded as “active”.
As to `CN(C)Cc1ccccc1OCCN(C)Cc1ccc(Cl)cc1` [Example 17, 2-{2-[N-(4-Chlorobenzyl)-N-methylamino]ethoxy}-N,N-dimethylbenzylamine], in test [1], half-maximal inhibition (IC50) required 13 µM. For the same molecule, the inhibition at 100 mg/kg in test [2] came to 36%. The “activity in Test C at 10 mg/kg or less” value in test [3] is “active”.
In the case of `CN(C)Cc1c(OCCN(C)Cc2ccccc2)ccc2ccccc12` [Example 8, N-Benzyl-2-[1-(dimethylaminomethyl)naphth-2-yloxy]-N-methylethylamine], in test [1], inhibition was half-maximal at 13 µM (IC50). The inhibition at 100 mg/kg in test [2] is 23%. The “activity in Test C at 30 mg/kg” value in test [3] is reported as “active”.
In test [1], `CN(CCOc1ccc(Cl)cc1CN1CCCCC1)Cc1ccccc1` [Example 11, N-Benzyl-2-[4-chloro-2-(piperidinomethyl)phenoxy]-N-methylethylamine] came in with an IC50 of 10 µM. 100 mg/kg produced 47% inhibition in test [2]. The “activity in Test C at 30 mg/kg” value in test [3] is reported as “active”.
In test [1], `CN(C)Cc1cc(F)ccc1OCCN(C)Cc1ccccc1` [Example 3, 2-[2-(N-Benzyl-N-methylamino)ethoxy]-5-fluoro-N,N-dimethylbenzylamine] displayed an IC50 of 20 µM. In addition, in test [2], the inhibition at 100 mg/kg was found to be 52%. In addition, in test [3], the “activity in Test C at 30 mg/kg” value was “active”.
Turning to `CN(C)Cc1c(OCCN(C)Cc2ccccc2)ccc(Cl)c1Cl` [Example 13, 2-[2-(N-Benzyl-N-methylamino)ethoxy]-5,6-dichloro-N,N-dimethylbenzylamine], in test [1], the IC50 turned out to be 8 µM. In test [2], the inhibition at 100 mg/kg came to 70%. For the same molecule, in test [3], the “activity in Test C at 30 mg/kg” value is listed as “active”.
Turning to `CN(C)Cc1ccccc1OCCN(C)Cc1ccccc1` [Example 20, 2-[2-(N-Benzyl-N-methylamino)ethoxy]-N,N-dimethylbenzylamine], in test [1], the half-inhibitory concentration (IC50) stood at 36 µM. For the same molecule, the inhibition at 100 mg/kg in test [2] stood at 64%. The “activity in Test C at 30 mg/kg” value in test [3] is listed as “active”.
